The record followed here is patent publication US20040229379A1, “Assay” (priority 2003, published 2004).

The assay deals with PDHK. The assay can be described thus: Binding affinity of fluorescent binder structures for PDHK.

For `Cc1cc(C)n2c1C=C1C=CC(CCC(=O)NCc3ccc(C(=O)N4C[C@H](C)N(C(=O)[C@@](C)(O)C(F)(F)F)C[C@H]4C)cc3)=[N+]1[B-]2(F)F` [(IV)], the “binding affinity for PDHK relative to (III/IIIA)” value is “lower binding affinity for PDHK than (III/IIIA)”.
